Assay results: ChEMBL document CHEMBL5050844 (2019)

Experiments:
[1] = Induction of anti-CD3/CD28 antibodies-stimulated human T cell activation at 4 uM assessed fold increase in IL-2 secretion measured by ELISA assay; format: functional, T cell line
[2] = Induction of anti-CD3/CD28 antibodies-stimulated human anergic T cell activation at 10 uM assessed fold increase in IFN-gamma secretion measured by ELISA assay; format: functional, T cell line
[3] = Induction of anti-CD3 antibodies-stimulated human exhausted T cell activation assessed fold increase in IL-2 secretion measured by ELISA assay; format: functional, T cell line; note: reference of the scale not given here
[4] = Induction of activation of human CD56+ CD3- NK cells co-cultured with human K562 cells in 1:1 ratio and assessed as increase in IFN-gamma secretion at 10 uM measured by ELISA assay; format: functional, Natural killer cell
[5] = Induction of anti-CD3/CD28 antibodies-stimulated human T cell activation at 0.3 uM assessed fold increase in IL-2 secretion measured by ELISA assay; format: functional, T cell line
[6] = Induction of anti-CD3 antibodies-stimulated human CD8+ T cell activation at 1.11 uM assessed fold increase in CD69 expression measured by flow cytometry analysis; format: functional, T cell line; note: reference of the scale not given here
[7] = Induction of anti-CD3 antibodies-stimulated human T cell activation at 10 uM assessed fold increase in TNF-alpha secretion measured by ELISA assay; format: functional, T cell line; note: reference of the scale not given here
[8] = Induction of activation of human CD56+ CD3- NK cells co-cultured with human K562 cells in 1:1 ratio and assessed as increase in TNF-alpha secretion at 0.625 uM measured by ELISA assay; format: functional, Natural killer cell
[9] = Induction of anti-CD3/CD28 antibodies-stimulated human CD4+ T cell activation at 1.11 uM assessed fold increase in cell proliferation measured by flow cytometry analysis; format: functional, T cell line
B cell = experiment: Induction of anti-IgM-stimulated human CD20+ B cell activation at 10 to 1000 uM assessed as increase in CD69 expression measured as mean fluorescence intensity AUC by flow cytometry analysis; format: functional, cell-based; conditions: dose 10-1000 µM
[10] = Induction of anti-CD3/CD28 antibodies-stimulated human CD8+ T cell activation at 10 uM assessed fold increase in cell proliferation measured by flow cytometry analysis; format: functional, T cell line
[11] = Induction of anti-CD3/CD28 antibodies-stimulated human anergic T cell activation at 1.11 uM assessed fold increase in IFN-gamma secretion measured by ELISA assay; format: functional, T cell line
[12] = Induction of anti-CD3/CD28 antibodies-stimulated human CD8+ T cell activation at 10 uM assessed fold increase in CD69 expression measured by flow cytometry analysis; format: functional, T cell line
[13] = Induction of anti-CD3/CD28 antibodies-stimulated human CD4+ T cell activation at 1.11 uM assessed fold increase in CD69 expression measured by flow cytometry analysis; format: functional, T cell line
[14] = Induction of activation of human CD56+ CD3- NK cells co-cultured with human K562 cells in 1:1 ratio and assessed as increase in IFN-gamma secretion at 2.5 uM measured by ELISA assay; format: functional, Natural killer cell
[15] = Induction of anti-CD3/CD28 antibodies-stimulated human T cell activation at 4 uM assessed fold increase in CD25 expression measured by ELISA assay; format: functional, T cell line
[16] = Induction of anti-CD3/CD28 antibodies-stimulated human T cell activation at 1.11 uM assessed fold increase in GM-CSF secretion measured by ELISA assay; format: functional, T cell line
[17] = Induction of anti-CD3 antibodies-stimulated human T cell activation at 1.11 uM assessed fold increase in TNF-alpha secretion measured by ELISA assay; format: functional, T cell line; note: reference of the scale not given here
[18] = Induction of anti-CD3 antibodies-stimulated human T cell activation at 1 uM assessed fold increase in CD25 expression measured by ELISA assay; format: functional, T cell line; note: reference of the scale not given here
[19] = Induction of anti-CD3/CD28 antibodies-stimulated human CD4+ T cell activation at 10 uM assessed fold increase in cell proliferation measured by flow cytometry analysis; format: functional, T cell line
[20] = Induction of anti-CD3/CD28 antibodies-stimulated human T cell activation at 10 uM assessed fold increase in TNF-alpha secretion measured by ELISA assay; format: functional, T cell line
[21] = Induction of anti-CD3 antibodies-stimulated human CD4+ T cell activation at 1.11 uM assessed fold increase in CD69 expression measured by flow cytometry analysis; format: functional, T cell line; note: reference of the scale not given here
[22] = Induction of allogenic human T cell activation at 10 uM assessed fold increase in cell proliferation; format: functional, T cell line
[23] = Induction of anti-CD3 antibodies-stimulated human T cell activation at 1.11 uM assessed fold increase in GM-CSF secretion measured by ELISA assay; format: functional, T cell line; note: reference of the scale not given here
[24] = Induction of anti-CD3/CD28 antibodies-stimulated human T cell activation at 1 uM assessed fold increase in CD25 expression measured by ELISA assay; format: functional, T cell line
[25] = Induction of anti-CD3 antibodies-stimulated human CD8+ T cell activation at 10 uM assessed fold increase in CD69 expression measured by flow cytometry analysis; format: functional, T cell line; note: reference of the scale not given here
[26] = Induction of activation of human CD56+ CD3- NK cells co-cultured with human K562 cells in 1:1 ratio and assessed as increase in TNF-alpha secretion at 10 uM measured by ELISA assay; format: functional, Natural killer cell
[27] = Induction of allogenic human T cell activation at 3 uM assessed fold increase in cell proliferation; format: functional, T cell line
[28] = Induction of anti-CD3/CD28 antibodies-stimulated human CD4+ T cell activation at 10 uM assessed fold increase in CD69 expression measured by flow cytometry analysis; format: functional, T cell line
[29] = Induction of activation of human CD56+ CD3- NK cells co-cultured with human K562 cells in 1:1 ratio and assessed as increase in IFN-gamma secretion at 0.625 uM measured by ELISA assay; format: functional, Natural killer cell
[30] = Induction of anti-CD3/CD28 antibodies-stimulated human CD8+ T cell activation at 1.11 uM assessed fold increase in cell proliferation measured by flow cytometry analysis; format: functional, T cell line
[31] = Induction of activation of human CD56+ CD3- NK cells co-cultured with human K562 cells in 1:1 ratio and assessed as increase in TNF-alpha secretion at 2.5 uM measured by ELISA assay; format: functional, Natural killer cell
[32] = Induction of anti-CD3 antibodies-stimulated human exhausted T cell activation assessed fold increase in IFN-gamma secretion measured by ELISA assay; format: functional, T cell line; note: reference of the scale not given here
[33] = Induction of anti-CD3/CD28 antibodies-stimulated human T cell activation at 1 uM assessed fold increase in IL-2 secretion measured by ELISA assay; format: functional, T cell line
[34] = Induction of anti-CD3 antibodies-stimulated human T cell activation at 8 uM assessed fold increase in CD25 expression measured by ELISA assay; format: functional, T cell line; note: reference of the scale not given here
[35] = Induction of anti-CD3 antibodies-stimulated human T cell activation at 1.11 uM assessed fold increase in IFN-gamma secretion measured by ELISA assay; format: functional, T cell line; note: reference of the scale not given here
[36] = Induction of anti-CD3/CD28 antibodies-stimulated human anergic T cell activation at 0.37 uM assessed fold increase in IFN-gamma secretion measured by ELISA assay; format: functional, T cell line
[37] = Induction of anti-CD3/CD28 antibodies-stimulated human T cell activation at 1.11 uM assessed fold increase in TNF-alpha secretion measured by ELISA assay; format: functional, T cell line

| SMILES | fold change (FC) [1] | fold change (FC) [2] | fold change (FC) [3] | fold change (FC) [4] | fold change (FC) [5] | fold change (FC) [6] | fold change (FC) [7] | fold change (FC) [8] | fold change (FC) [9] | AUC (B cell) | fold change (FC) [10] | fold change (FC) [11] | fold change (FC) [12] | fold change (FC) [13] | fold change (FC) [14] | fold change (FC) [15] | fold change (FC) [16] | fold change (FC) [17] | fold change (FC) [18] | fold change (FC) [19] | also measured |
| --- | --- | --- | --- | --- | --- | --- | --- | --- | --- | --- | --- | --- | --- | --- | --- | --- | --- | --- | --- | --- | --- |
| C[C@@H](c1cc2c(c(C(F)(F)F)c1)CN(c1cccc(C3(Cc4nncn4C)COC3)c1)C2=O)N1CC[C@H](F)C1 | >=7.5 | >4.01 | <=2.5 | >=5 | >=7.5 | 1.401 | 2.01 | 2.01 | >4 | > 1.51 | >4 | >4.01 | 1.201 | 1.401 | 2.01 | 1.51 | >4 | 1.51 | >=1.001 | >4 | fold change (FC) [20]: >4; fold change (FC) [21]: >1.601; fold change (FC) [22]: >3; fold change (FC) [23]: >4; fold change (FC) [24]: 1.51; fold change (FC) [25]: 1.401; fold change (FC) [26]: 2.01; fold change (FC) [27]: >3; fold change (FC) [28]: 1.401; fold change (FC) [29]: 2.01; fold change (FC) [30]: >4; fold change (FC) [31]: 2.01; fold change (FC) [32]: >1.61; fold change (FC) [33]: >=7.5; fold change (FC) [34]: >=1.001; fold change (FC) [35]: 3.01; fold change (FC) [36]: <=2.5; fold change (FC) [37]: 2.01 |
| C[C@H](Cc1nncn1C)c1cccc(NC(=O)c2cccc(CCO)n2)c1 | 2.51 | 2.51 | <=2.5 | 2.01 | 1.01 | <=1.2 | <=1.5 | <=1 | <=2 | 1.01 | 2.01 | <=2.5 | <=1.2 | <=1.2 | 1.01 | 1.31 | <=1.5 | <=1.5 | <=0.6 | 3.01 | fold change (FC) [20]: 1.51; fold change (FC) [21]: <=1.2; fold change (FC) [22]: <=2; fold change (FC) [23]: <=1.5; fold change (FC) [24]: 1.01; fold change (FC) [25]: <=1.2; fold change (FC) [26]: 1.01; fold change (FC) [27]: <=2; fold change (FC) [28]: 1.201; fold change (FC) [29]: 1.01; fold change (FC) [30]: <=2; fold change (FC) [31]: 1.01; fold change (FC) [32]: <=1.4; fold change (FC) [33]: 1.01; fold change (FC) [34]: 0.801; fold change (FC) [35]: <=2; fold change (FC) [36]: <=2.5; fold change (FC) [37]: <=1.5 |
| Cn1cnnc1CC1(c2cccc(N3Cc4c(cc(CN5CC(F)C5)cc4C(F)(F)F)C3=O)c2)COC1 | >=7.5 | >4.01 | <=2.5 | >=5 | 5 | 1.201 | 1.51 | 1.01 | >4 | 1.01 | >4 | 2.51 | 1.201 | 1.201 | 2.01 | 1.51 | 2.01 | 1.51 | >=1.001 | >4 | fold change (FC) [20]: 2.01; fold change (FC) [21]: >1.601; fold change (FC) [22]: >3; fold change (FC) [23]: 2.01; fold change (FC) [24]: 1.31; fold change (FC) [25]: 1.401; fold change (FC) [26]: 2.01; fold change (FC) [27]: 2.01; fold change (FC) [28]: 1.401; fold change (FC) [29]: 2.01; fold change (FC) [30]: 3.01; fold change (FC) [31]: 2.01; fold change (FC) [32]: >1.61; fold change (FC) [33]: >=7.5; fold change (FC) [34]: >=1.001; fold change (FC) [35]: 2.01; fold change (FC) [36]: 2.51; fold change (FC) [37]: 2.01 |
